Structures can show the parent of a compound that is named as a salt.
How the values were obtained:
Format in all cases: biochemical
Human Tyk2 kinase domain = molecular target: T1, Human Tyk2 kinase domain (Homo sapiens, UniProt P29597); test: Tyk2 Inhibition Assay (Omnia kinase fluorescence peptide substrate assay); conditions: averaged IC50 ranges; assay of Example A; 10 μM (Km app) or 1 mM ATP, 2 nM Tyk2
T1 construct: comprising amino acids 886 to 1187 with 10 additional histidine residues; 10xHis (histidine tag) (C, cleaved yes); made in house
T1 sequence (P29597 886-1187): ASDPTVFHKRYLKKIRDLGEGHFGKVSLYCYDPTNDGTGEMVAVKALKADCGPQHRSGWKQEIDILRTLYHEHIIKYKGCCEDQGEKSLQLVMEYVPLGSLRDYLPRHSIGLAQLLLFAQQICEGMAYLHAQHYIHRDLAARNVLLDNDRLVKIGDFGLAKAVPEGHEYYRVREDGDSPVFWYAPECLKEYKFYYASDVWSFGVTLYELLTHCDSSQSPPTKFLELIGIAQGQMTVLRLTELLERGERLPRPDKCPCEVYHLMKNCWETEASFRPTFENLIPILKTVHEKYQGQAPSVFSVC
Summary of the method: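 2 nM His-tag-cleaved kinase domain (aa 886–1187) with 8 μM Omnia Y12 peptide, 10 μM (Km app) or 1 mM ATP, pH 7.4 HEPES/10 mM MgCl2, 2% DMSO. Fluorescence (ex 360/em 485 nm) every 50 s for 45 min; IC50 from 4-parameter fit of POC, top dose 10 μM.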

JAK1 = molecular target: T2, JAK1 (Homo sapiens, UniProt P23458); test: JAK1 Inhibition Assay (Omnia kinase fluorescence peptide substrate assay); conditions: averaged IC50 ranges; assay of Example B; 40 μM (Km app) or 1 mM ATP, 15 nM JAK1
T2 construct: purchased Invitrogen Corporation, Carlsbad, Calif; PV4775
T2 sequence (P23458 whole entry): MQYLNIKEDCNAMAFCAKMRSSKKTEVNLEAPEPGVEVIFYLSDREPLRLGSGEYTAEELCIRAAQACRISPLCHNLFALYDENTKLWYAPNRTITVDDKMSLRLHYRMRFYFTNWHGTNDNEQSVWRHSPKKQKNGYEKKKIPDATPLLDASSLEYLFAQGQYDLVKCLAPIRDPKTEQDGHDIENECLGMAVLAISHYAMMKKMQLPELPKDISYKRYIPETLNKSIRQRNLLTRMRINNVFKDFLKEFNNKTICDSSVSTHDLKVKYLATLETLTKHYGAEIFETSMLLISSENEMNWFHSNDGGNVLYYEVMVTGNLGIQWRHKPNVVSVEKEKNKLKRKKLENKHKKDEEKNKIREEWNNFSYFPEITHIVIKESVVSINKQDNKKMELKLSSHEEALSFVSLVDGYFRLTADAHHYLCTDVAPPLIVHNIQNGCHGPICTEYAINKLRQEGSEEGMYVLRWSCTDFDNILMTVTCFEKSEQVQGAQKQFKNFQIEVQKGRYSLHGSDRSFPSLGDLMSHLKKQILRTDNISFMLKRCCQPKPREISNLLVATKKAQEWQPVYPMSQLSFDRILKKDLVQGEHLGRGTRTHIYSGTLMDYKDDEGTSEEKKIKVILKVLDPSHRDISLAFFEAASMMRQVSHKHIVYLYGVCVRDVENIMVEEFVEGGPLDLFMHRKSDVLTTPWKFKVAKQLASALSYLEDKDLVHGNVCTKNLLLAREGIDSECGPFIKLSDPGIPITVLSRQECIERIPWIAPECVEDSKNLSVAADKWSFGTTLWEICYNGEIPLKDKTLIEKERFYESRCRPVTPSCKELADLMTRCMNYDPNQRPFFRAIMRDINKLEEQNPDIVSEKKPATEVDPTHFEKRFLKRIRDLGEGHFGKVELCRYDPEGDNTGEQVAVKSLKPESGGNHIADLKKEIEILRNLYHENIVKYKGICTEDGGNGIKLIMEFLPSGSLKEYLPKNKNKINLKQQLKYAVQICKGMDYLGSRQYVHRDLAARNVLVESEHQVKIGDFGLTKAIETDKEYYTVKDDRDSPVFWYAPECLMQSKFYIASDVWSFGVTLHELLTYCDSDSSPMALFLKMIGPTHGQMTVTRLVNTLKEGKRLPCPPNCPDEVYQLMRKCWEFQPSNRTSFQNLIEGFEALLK

JAK2 = molecular target: T3, JAK2 (Homo sapiens, UniProt O60674); test: JAK2 Inhibition Assay (Omnia kinase fluorescence peptide substrate assay); conditions: averaged IC50 ranges; assay of Example C; 25 μM (Km app) or 1 mM ATP, 5 nM JAK2
T3 construct: purchased Invitrogen Corporation, Carlsbad, Calif; PV4288
T3 sequence (O60674 whole entry): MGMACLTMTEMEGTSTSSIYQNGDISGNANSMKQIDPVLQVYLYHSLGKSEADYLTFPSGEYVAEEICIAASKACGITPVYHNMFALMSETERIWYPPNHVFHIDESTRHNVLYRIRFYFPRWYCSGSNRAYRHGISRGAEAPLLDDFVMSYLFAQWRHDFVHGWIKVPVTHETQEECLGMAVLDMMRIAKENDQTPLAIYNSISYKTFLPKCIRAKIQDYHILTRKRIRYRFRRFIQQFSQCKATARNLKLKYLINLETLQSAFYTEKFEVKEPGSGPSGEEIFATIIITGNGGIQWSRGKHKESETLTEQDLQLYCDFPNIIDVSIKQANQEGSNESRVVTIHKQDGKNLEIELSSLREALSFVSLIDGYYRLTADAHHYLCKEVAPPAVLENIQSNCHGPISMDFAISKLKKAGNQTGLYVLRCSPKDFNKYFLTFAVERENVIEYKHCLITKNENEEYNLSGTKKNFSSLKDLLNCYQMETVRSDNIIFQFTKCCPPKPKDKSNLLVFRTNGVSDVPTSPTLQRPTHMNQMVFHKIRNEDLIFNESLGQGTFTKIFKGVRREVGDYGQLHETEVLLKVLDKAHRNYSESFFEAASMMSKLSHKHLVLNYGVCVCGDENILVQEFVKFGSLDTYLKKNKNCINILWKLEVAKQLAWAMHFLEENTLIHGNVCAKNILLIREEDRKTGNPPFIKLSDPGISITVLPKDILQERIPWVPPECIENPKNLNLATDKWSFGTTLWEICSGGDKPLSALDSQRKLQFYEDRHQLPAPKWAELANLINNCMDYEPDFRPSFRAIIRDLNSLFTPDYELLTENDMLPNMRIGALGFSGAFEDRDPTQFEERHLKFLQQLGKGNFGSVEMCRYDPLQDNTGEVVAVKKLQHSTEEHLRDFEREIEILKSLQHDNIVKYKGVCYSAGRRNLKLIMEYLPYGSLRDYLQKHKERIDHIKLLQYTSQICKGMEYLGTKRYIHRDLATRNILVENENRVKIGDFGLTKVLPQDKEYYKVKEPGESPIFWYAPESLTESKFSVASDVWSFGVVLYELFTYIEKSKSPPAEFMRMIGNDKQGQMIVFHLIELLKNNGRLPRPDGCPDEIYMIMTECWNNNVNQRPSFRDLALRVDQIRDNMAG
Summary of the method: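 A 10-point, 3-fold compound series (top 10 μM, 2% DMSO) was tested against 5 nM JAK2 with 10 μM Omnia Y7 substrate and either 1 mM or 25 μM (Km app) ATP. Buffer: pH 7.4 HEPES, MgCl2, Triton X-100, DTT. Sox fluorescence was monitored kinetically for 45 min; IC50 is the concentration giving 50 POC on a 4-parameter fit.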

JAK3 = molecular target: T4, JAK3 (Homo sapiens, UniProt P52333); test: JAK3 Inhibition Assay (Omnia kinase fluorescence peptide substrate assay); conditions: averaged IC50 ranges; assay of Example D; 10 μM (Km app) or 1 mM ATP, 2.5 nM JAK3
T4 construct: purchased Invitrogen Corporation, Carlsbad, Calif; PV4080
T4 sequence (P52333 1-1124): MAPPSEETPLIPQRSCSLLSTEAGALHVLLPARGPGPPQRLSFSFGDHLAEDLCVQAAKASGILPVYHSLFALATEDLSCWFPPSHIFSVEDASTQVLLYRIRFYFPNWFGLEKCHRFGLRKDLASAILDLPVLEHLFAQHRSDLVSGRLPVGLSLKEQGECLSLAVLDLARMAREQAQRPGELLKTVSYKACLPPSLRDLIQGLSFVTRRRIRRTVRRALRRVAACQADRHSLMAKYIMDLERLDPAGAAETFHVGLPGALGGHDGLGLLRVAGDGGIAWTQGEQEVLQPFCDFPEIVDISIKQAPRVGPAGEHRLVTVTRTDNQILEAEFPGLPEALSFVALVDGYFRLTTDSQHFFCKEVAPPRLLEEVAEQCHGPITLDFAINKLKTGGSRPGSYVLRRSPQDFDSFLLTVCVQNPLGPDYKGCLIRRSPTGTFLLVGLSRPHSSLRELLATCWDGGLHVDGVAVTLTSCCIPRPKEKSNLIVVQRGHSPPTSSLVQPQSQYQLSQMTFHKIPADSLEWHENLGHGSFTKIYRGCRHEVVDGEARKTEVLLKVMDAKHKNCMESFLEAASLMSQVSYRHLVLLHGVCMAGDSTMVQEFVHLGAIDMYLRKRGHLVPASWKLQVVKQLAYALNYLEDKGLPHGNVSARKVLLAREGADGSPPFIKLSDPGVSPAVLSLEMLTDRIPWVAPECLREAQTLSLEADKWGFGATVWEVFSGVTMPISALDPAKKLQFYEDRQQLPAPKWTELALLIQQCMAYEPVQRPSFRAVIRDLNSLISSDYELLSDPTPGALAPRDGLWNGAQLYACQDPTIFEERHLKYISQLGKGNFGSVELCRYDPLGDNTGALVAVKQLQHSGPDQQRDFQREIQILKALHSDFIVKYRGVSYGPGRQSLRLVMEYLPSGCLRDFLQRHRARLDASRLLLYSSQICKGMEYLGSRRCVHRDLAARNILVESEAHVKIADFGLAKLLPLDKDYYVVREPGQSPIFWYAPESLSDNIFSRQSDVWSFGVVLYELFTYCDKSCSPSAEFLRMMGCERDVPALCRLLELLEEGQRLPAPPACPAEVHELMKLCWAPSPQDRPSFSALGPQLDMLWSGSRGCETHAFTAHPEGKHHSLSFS
Summary of the method: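 Kinase at 2.5 nM with 10 µM Omnia Y7 peptide and 10 µM (Km app) or 1 mM ATP in 25 mM HEPES pH 7.4, 10 mM MgCl2, 1 mM DTT, 0.01% Triton X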

Compound	IC50 (Human Tyk2 kinase domain)	IC50 (JAK1)	IC50 (JAK2)	IC50 (JAK3)
Cn1cc(-c2cc3nccn3c(-c3cnn(C4(CC#N)CC5(CCC5)C4)c3)n2)cn1 [Example 160, 2-(2-(4-(7-(1-methyl-1H-pyrazol-4-yl)imidazo[1,2-c]pyrimidin-5-yl)-1H-pyrazol-1-yl)spiro[3.3]heptan-2-yl)acetonitrile]	< 10 nM	100 to 1000 nM	10 to 100 nM	100 to 1000 nM
CCn1cc(-c2cc3nccn3c(-c3cnn(C4(CC#N)CN(CC(F)(F)F)C4)c3)n2)cn1 [Example 104, 2-(3-(4-(7-(1-Ethyl-1H-pyrazol-4-yl)imidazo[1,2-c]pyrimidin-5-yl)-1H-pyrazol-1-yl)-1-(2,2,2-trifluoroethyl)azetidin-3-yl)acetonitrile]	< 10 nM	100 to 1000 nM	10 to 100 nM	> 1000 nM
Cn1cc(-c2cc3nccn3c(-c3cnn(C4(CC#N)CN(c5ncccn5)C4)c3)n2)cn1 [Example 68, 2-(3-(4-(7-(1-Methyl-1H-pyrazol-4-yl)imidazo[1,2-c]pyrimidin-5-yl)-1H-pyrazol-1-yl)-1-(pyrimidin-2-yl)azetidin-3-yl)acetonitrile]	100 to 1000 nM	> 1000 nM	> 1000 nM	> 1000 nM
Cn1cc(-c2cc3nccn3c(-c3cnn(C4(CC#N)COC4)c3)n2)cn1 [Example 24, 2-(3-(4-(7-(1-methyl-1H-pyrazol-4-yl)imidazo[1,2-c]pyrimidin-5-yl)-1H-pyrazol-1-yl)oxetan-3-yl)acetonitrile]	10 to 100 nM	10 to 100 nM	10 to 100 nM	> 1000 nM
CN1CCC(c2ccc(-c3cc4nccn4c(-c4cnn(C(CC#N)C5CCCC5)c4)n3)cc2)CC1 (single isomer, unassigned) [Example 111, 3-cyclopentyl-3-(4-(7-(4-(1-methylpiperidin-4-yl)phenyl)imidazo[1,2-c]pyrimidin-5-yl)-1H-pyrazol-1-yl)propanenitrile]	10 to 100 nM	100 to 1000 nM	100 to 1000 nM	100 to 1000 nM
Cn1cc(-c2cc3nccn3c(-c3cnn(C4(CC#N)CN(C(CF)CF)C4)c3)n2)cn1 [Example 79, 2-(1-(1,3-difluoropropan-2-yl)-3-(4-(7-(1-methyl-1H-pyrazol-4-yl)imidazo[1,2-c]pyrimidin-5-yl)-1H-pyrazol-1-yl)azetidin-3-yl)acetonitrile]	10 to 100 nM	> 1000 nM	100 to 1000 nM	> 1000 nM
Cn1cc(-c2cc3nccn3c(-c3cnn(C4(CC#N)CN(S(=O)(=O)CCC(F)(F)F)C4)c3)n2)cn1 [Example 98, 2-(3-(4-(7-(1-methyl-1H pyrazol-4-yl)imidazo[1,2-c]pyrimidin-5-yl)-1H-pyrazol-1-yl)-1-(3,3,3-trifluoropropylsulfonyl)azetidin-3-yl)acetonitrile]	< 10 nM	100 to 1000 nM	10 to 100 nM	> 1000 nM
Cc1nn(CCC#N)cc1-c1nc(-c2cnn(C)c2)cc2nccn12 [Example 106, 3-(3-methyl-4-(7-(1-methyl-1H-pyrazol-4-yl)imidazo[1,2-c]pyrimidin-5-yl)-1H-pyrazol-1-yl)propanenitrile]	100 to 1000 nM	> 1000 nM	100 to 1000 nM	> 1000 nM
Cn1cc(-c2cc3nccn3c(-c3cnn(C(CC#N)C4CC4)c3)n2)cn1 (centres unmarked) [Example 2, 3-Cyclopropyl-3-(4-(7-(1-methyl-1H-pyrazol-4-yl)imidazo[1,2-c]pyrimidin-5-yl)-1H-pyrazol-1-yl)propanenitrile]	< 10 nM	100 to 1000 nM	10 to 100 nM	> 1000 nM
N#CCC(C1CC1)n1cc(-c2nc(-c3ccc4c(c3)CNCC4)cc3nccn23)cn1 (centres unmarked) [Example 54, 3-Cyclopropyl-3-(4-(7-(1,2,3,4-tetrahydroisoquinolin-7-yl)imidazo[1,2-c]pyrimidin-5-yl)-1H-pyrazol-1-yl)propanenitrile]	< 10 nM	10 to 100 nM	10 to 100 nM	100 to 1000 nM
Cc1cn(-c2cc3nccn3c(-c3cnn(C(CC#N)C4CC4)c3)n2)cn1 (centres unmarked) [Example 46, 3-Cyclopropyl-3-(4-(7-(4-methyl-1H-imidazol-1-yl)imidazo[1,2-c]pyrimidin-5-yl)-1H-pyrazol-1-yl)propanenitrile]	10 to 100 nM	> 1000 nM	100 to 1000 nM	> 1000 nM
Cn1cc(-c2cc3nccn3c(-c3ccn(C4(CC#N)CNC4)c3)n2)cn1 [Example 127, 2-(3-(3-(7-(1-Methyl-1H-pyrazol-4-yl)imidazo[1,2-c]pyrimidin-5-yl)-1H-pyrrol-1-yl)azetidin-3-yl)acetonitrile trifluoroacetate]	10 to 100 nM	100 to 1000 nM	100 to 1000 nM	> 1000 nM
Cn1cc(-c2cc3nccn3c(-c3ccn(C4(CC#N)CN(S(=O)(=O)C5CC5)C4)c3)n2)cn1 [Example 136]	< 10 nM	10 to 100 nM	10 to 100 nM	> 1000 nM
CN1CC(CC#N)(n2cc(-c3nc(-c4cnn(C)c4)cc4nccn34)cn2)C1 [Example 83, 2-(1-methyl-3-(4-(7-(1-methyl-1H-pyrazol-4-yl)imidazo[1,2-c]pyrimidin-5-yl)-1H-pyrazol-1-yl)azetidin-3-yl)acetonitrile]	10 to 100 nM	> 1000 nM	100 to 1000 nM	> 1000 nM
Cn1cc(-c2cc3nccn3c(-c3cnn(C(CC#N)c4cccnc4)c3)n2)cn1 (centres unmarked) [Example 7, 3-(4-(7-(1-methyl-1H-pyrazol-4-yl)imidazo[1,2-c]pyrimidin-5-yl)-1H-pyrazol-1-yl)-3-(pyridin-3-yl)propanenitrile]	< 10 nM	10 to 100 nM	10 to 100 nM	100 to 1000 nM
Cn1cc(-c2cc3nccn3c(-c3cnn(C4(CC#N)CN(C(=O)CC(F)(F)F)C4)c3)n2)cn1 [Example 64, 2-(3-(4-(7-(1-Methyl-1H-pyrazol-4-yl)imidazo[1,2-c]pyrimidin-5-yl)-1H-pyrazol-1-yl)-1-(3,3,3-trifluoropropanoyl)azetidin-3-yl)acetonitrile]	10 to 100 nM	100 to 1000 nM	10 to 100 nM	100 to 1000 nM
Cn1cc(-c2cc3nccn3c(-c3cnn(C(CC#N)C4CC4)c3)n2)cn1 (single isomer, unassigned; enantiomer 2) [Example 4, Enantiomer 2 of 3-cyclopropyl-3-(4-(7-(1-methyl-1H-pyrazol-4-yl)imidazo[1,2-c]pyrimidin-5-yl)-1H-pyrazol-1-yl)propanenitrile (Peak 2)]	< 10 nM	10 to 100 nM	10 to 100 nM	100 to 1000 nM

— patent US8962596B2 (Array BioPharma Inc., priority 2010, dated 2015)
